From publication PMC3388080 (PLoS ONE, 2012)

System: male Sprague-Dawley rats
Experiment: EEG/EMG/Tcore/LMA telemetry sleep study 2 (EMPA vs ZOL)
Assay type: in vivo, rat
Experimental: All rodent electroencephalograph (EEG) studies were performed at SRI International. Three groups of eight male Sprague-Dawley rats (300±25 g; Charles River, Wilmington, MA) were implanted with chronic recording devices (F40-EET, Data Sciences Inc., St Paul, MN) for continuous recordings of EEG, electromyograph (EMG), core body temperature (Tcore), and LMA via telemetry as previously described. Data recording and scoring were performed as previously reported (see also Supplemental Material and Methods). The EEG and EMG data were scored in 10 sec epochs for waking (W), rapid eye movement sleep (REM), and non-REM sleep (NR). Tcore and LMA (counts per minute) were analyzed as hourly means. Data from the EEG studies are reported in hourly means such that the hourly time ZT1 refers to the hour between time points ZT0 and ZT1.
For each of the three separate studies, a repeated measures counter-balanced design was employed in which each rat received five separate dosings. […] All dosings were administered ip in a volume of 2 ml/kg. A minimum of 3 d elapsed between doses. Dosing occurred during the middle of the rats’ normal active period at the start of ZT19 and was typically completed within 10 min. Animals were continuously recorded for 6 h prior to dosing and for 18 h following dosing.

## CCN(Cc1cccnc1)C(=O)CN(c1ccc(OC)nc1)S(=O)(=O)c1ccccc1C [EMPA, N-(Ethyl-2-[(6-methoxy-pyridin-3-yl)-(toluene-2-sulfonyl)-amino]-N-pyridin-3-ylmethyl-acetamide)]
ZT21, 100 mg/kg ip
  Number of REM bouts: 4.10± 1.08
  Number of W bouts: 12.40± 2.01
  REM bout duration: 1.18 ± 0.14^+
  W bout duration: 8.88± 5.82
ZT21, EMPA 10 mg/kg ip
  NR bout duration: 1.12± 0.17
  Number of NR bouts: 13.50± 2.15
  Number of REM bouts: 3.40± 0.73
  Number of W bouts: 10.20± 1.61
  REM bout duration: 0.69 ± 0.11
  W bout duration: 6.55± 2.67
ZT22, 30 mg/kg ip
  NR bout duration: 1.38± 0.15
  Number of NR bouts: 12.20± 1.65
  Number of REM bouts: 5.30± 1.09
  Number of W bouts: 9.20± 1.32
  REM bout duration: 0.83± 0.13
  W bout duration: 4.90± 1.31
ZT22, 100 mg/kg ip
  NR bout duration: 1.32± 0.31
  Number of NR bouts: 18.40± 2.70
  Number of REM bouts: 4.80± 0.98
  Number of W bouts: 13.20± 1.76
  REM bout duration: 0.84± 0.17
  W bout duration: 2.84± 0.49
ZT22, EMPA 10 mg/kg ip
  NR bout duration: 1.33± 0.24
  Number of NR bouts: 12.70± 1.87
  Number of REM bouts: 3.30± 0.58
  Number of W bouts: 8.20± 1.73
  REM bout duration: 0.84± 0.16
  W bout duration: 7.34± 2.67
ZT23, 30 mg/kg ip
  NR bout duration: 0.90± 0.11^+
  Number of NR bouts: 10.80± 2.35
  Number of REM bouts: 3.40± 1.24
  Number of W bouts: 8.00± 1.56
  REM bout duration: 0.75± 0.21
  W bout duration: 11.46± 5.56
ZT23, 100 mg/kg ip
  NR bout duration: 1.10± 0.20
  Number of NR bouts: 12.30± 1.25
  Number of REM bouts: 3.20± 0.63
  Number of W bouts: 8.60± 1.01
  REM bout duration: 0.96± 0.19
  W bout duration: 4.89 ±0.81
ZT23, EMPA 10 mg/kg ip
  NR bout duration: 1.39± 0.18
  Number of NR bouts: 11.00± 1.40
  Number of REM bouts: 3.40± 0.65
  Number of W bouts: 7.90± 1.27
  REM bout duration: 0.85± 0.09
  W bout duration: 6.10± 1.02
ZT24, 30 mg/kg ip
  NR bout duration: 1.45± 0.49
  Number of NR bouts: 7.50± 1.61
  Number of REM bouts: 2.00± 0.94
  Number of W bouts: 7.10± 1.63
  REM bout duration: 0.69± 0.13
  W bout duration: 16.83± 7.31
ZT24, 100 mg/kg ip
  NR bout duration: 1.04± 0.17
  Number of NR bouts: 9.40± 2.24
  Number of REM bouts: 2.00± 1.01
  Number of W bouts: 8.40± 1.92
  REM bout duration: 0.49± 0.09
  W bout duration: 14.62± 6.09
ZT24, EMPA 10 mg/kg ip
  NR bout duration: 1.25± 0.18^+
  Number of NR bouts: 10.00± 2.22
  Number of REM bouts: 2.30± 0.98
  Number of W bouts: 7.80± 1.76
  REM bout duration: 0.54± 0.10
  W bout duration: 9.17± 2.45
Administered in the mid-dark phase
  NR or REM latency (in words): no effect on either NR or REM latency
All three concentrations (10, 30, 100 mg/kg ip)
  number of W bouts (in words): increased the number of W bouts
High concentration tested, across 6 h
  Tcore (in words): decreased Tcore
Light period
  NR during the subsequent light period (in words): No significant effects on NR
